Measured values taken from the supplement of paper PMC10307832.

Assays:
Assay in all cases: relative viability (nuclei count vs DMSO), 5 days (fraction); higher = more cells survive
LCLC-97TM1 = test system: LCLC-97TM1
In short: (§1)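 Cells from lung cancer lines were seeded into 1536-well plates and, one day later, dosed by pin tool. Treatments were either a single drug or a fixed dose of an anchor drug with five library-drug doses (not always all listed) in √10 steps. After 5 days, nuclei were stained in a one-step fixation (final 0.05% Triton X-100, 1% formaldehyde, 1 ug/ml Hoechst) and counted on 4× images, and relative viability is the treated-to-vehicle nuclei ratio, as the median of duplicate plates.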

NCI-H661 = test system: NCI-H661
In short: as §1

NCI-H23 = test system: NCI-H23
In short: as §1

NCI-H2347 = test system: NCI-H2347
In short: as §1

COR-L 105 = test system: COR-L 105
In short: as §1

PC-14 = test system: PC-14
In short: as §1

HCC-827 = test system: HCC-827
In short: as §1

NCI-H520 = test system: NCI-H520
In short: as §1

RERF-LC-KJ = test system: RERF-LC-KJ
In short: as §1

H3255 = test system: H3255
In short: as §1

NCI-H1666 = test system: NCI-H1666
In short: as §1

NCI-H2126 = test system: NCI-H2126
In short: as §1

NCI-H650 = test system: NCI-H650
In short: as §1

NCI-H2405 = test system: NCI-H2405
In short: as §1

ChaGo-K-1 = test system: ChaGo-K-1
In short: as §1

201T = test system: 201T
In short: as §1

NCI-H322M = test system: NCI-H322M
In short: as §1

NCI-H647 = test system: NCI-H647
In short: as §1

NCI-H2087 = test system: NCI-H2087
In short: as §1

NCI-H1915 = test system: NCI-H1915
In short: as §1

LC-2-ad = test system: LC-2-ad
In short: as §1

EPLC-272H = test system: EPLC-272H
In short: as §1

**Q.** Which relative viability (LCLC-97TM1; first compound 0.04 µM) does the source give for `O=C(O)c1ccc(-c2c[nH]c3ncc(-c4ccccc4)cc23)cc1C1CCCC1` + CCNC(=O)c1noc(-c2cc(C(C)C)c(O)cc2O)c1-c1ccc(CN2CCOCC2)cc1 [Luminespib] (partner 0.01 µM) here?
**A.** 0.858

**Q.** What about the relative viability (LCLC-97TM1; first compound 0.1265 µM) of the same compound?
**A.** 0.82

**Q.** And the relative viability (LCLC-97TM1; first compound 0.4 µM)?
**A.** 0.633

**Q.** What about the relative viability (LCLC-97TM1; first compound 1.265 µM) of the same compound?
**A.** 0.5

**Q.** And the relative viability (NCI-H661; first compound 0.04 µM)?
**A.** 0.915

**Q.** And the relative viability (NCI-H661; first compound 0.4 µM)?
**A.** 0.905

**Q.** What about the relative viability (NCI-H661; first compound 1.265 µM) of the same compound?
**A.** 0.897

**Q.** What about the relative viability (NCI-H23; first compound 0.04 µM) of the same compound?
**A.** 0.224

**Q.** And the relative viability (NCI-H23; first compound 0.1265 µM)?
**A.** 0.217

**Q.** What about the relative viability (NCI-H23; first compound 0.4 µM) of the same compound?
**A.** 0.217

**Q.** And the relative viability (NCI-H23; first compound 1.265 µM)?
**A.** 0.2

**Q.** What about the relative viability (NCI-H2347; first compound 0.04 µM) of the same compound?
**A.** 0.444

**Q.** And the relative viability (NCI-H2347; first compound 0.1265 µM)?
**A.** 0.794

**Q.** And the relative viability (NCI-H2347; first compound 0.4 µM)?
**A.** 0.275

**Q.** What about the relative viability (NCI-H2347; first compound 1.265 µM) of the same compound?
**A.** 0.408

**Q.** And the relative viability (COR-L 105; first compound 0.04 µM)?
**A.** 0.933

**Q.** And the relative viability (COR-L 105; first compound 0.1265 µM)?
**A.** 0.76

**Q.** What about the relative viability (COR-L 105; first compound 0.4 µM) of the same compound?
**A.** 0.762

**Q.** What about the relative viability (COR-L 105; first compound 1.265 µM) of the same compound?
**A.** 0.773

**Q.** And the relative viability (PC-14; first compound 0.04 µM)?
**A.** 0.225

**Q.** And the relative viability (PC-14; first compound 0.1265 µM)?
**A.** 0.129

**Q.** What about the relative viability (PC-14; first compound 0.4 µM) of the same compound?
**A.** 0.141

**Q.** What about the relative viability (PC-14; first compound 1.265 µM) of the same compound?
**A.** 0.134

**Q.** What about the relative viability (HCC-827; first compound 0.04 µM) of the same compound?
**A.** 0.602

**Q.** And the relative viability (HCC-827; first compound 0.1265 µM)?
**A.** 0.793

**Q.** And the relative viability (HCC-827; first compound 0.4 µM)?
**A.** 0.413

**Q.** What about the relative viability (HCC-827; first compound 1.265 µM) of the same compound?
**A.** 0.485

**Q.** And the relative viability (NCI-H520; first compound 0.04 µM)?
**A.** 0.223

**Q.** What about the relative viability (NCI-H520; first compound 0.1265 µM) of the same compound?
**A.** 0.195

**Q.** What about the relative viability (NCI-H520; first compound 0.4 µM) of the same compound?
**A.** 0.211

**Q.** And the relative viability (NCI-H520; first compound 1.265 µM)?
**A.** 0.217

**Q.** What about the relative viability (RERF-LC-KJ; first compound 0.04 µM) of the same compound?
**A.** 1.32

**Q.** And the relative viability (RERF-LC-KJ; first compound 0.1265 µM)?
**A.** 1.19

**Q.** What about the relative viability (RERF-LC-KJ; first compound 0.4 µM) of the same compound?
**A.** 1.1

**Q.** What about the relative viability (RERF-LC-KJ; first compound 1.265 µM) of the same compound?
**A.** 0.645

**Q.** And the relative viability (H3255; first compound 0.04 µM)?
**A.** 0.978

**Q.** What about the relative viability (H3255; first compound 0.1265 µM) of the same compound?
**A.** 0.983

**Q.** And the relative viability (H3255; first compound 0.4 µM)?
**A.** 0.855

**Q.** And the relative viability (H3255; first compound 1.265 µM)?
**A.** 0.778

**Q.** And the relative viability (NCI-H1666; first compound 0.04 µM)?
**A.** 0.976

**Q.** And the relative viability (NCI-H1666; first compound 0.1265 µM)?
**A.** 0.97

**Q.** What about the relative viability (NCI-H1666; first compound 0.4 µM) of the same compound?
**A.** 0.959

**Q.** What about the relative viability (NCI-H1666; first compound 1.265 µM) of the same compound?
**A.** 0.579

**Q.** What about the relative viability (NCI-H2126; first compound 0.04 µM) of the same compound?
**A.** 0.937

**Q.** What about the relative viability (NCI-H2126; first compound 0.1265 µM) of the same compound?
**A.** 0.955

**Q.** What about the relative viability (NCI-H2126; first compound 0.4 µM) of the same compound?
**A.** 0.796

**Q.** What about the relative viability (NCI-H2126; first compound 1.265 µM) of the same compound?
**A.** 0.619

**Q.** And the relative viability (NCI-H650; first compound 0.04 µM)?
**A.** 0.866

**Q.** And the relative viability (NCI-H650; first compound 0.1265 µM)?
**A.** 0.861

**Q.** And the relative viability (NCI-H650; first compound 0.4 µM)?
**A.** 0.757

**Q.** What about the relative viability (NCI-H650; first compound 1.265 µM) of the same compound?
**A.** 0.293

**Q.** And the relative viability (NCI-H2405; first compound 0.04 µM)?
**A.** 0.778

**Q.** And the relative viability (NCI-H2405; first compound 0.1265 µM)?
**A.** 0.831

**Q.** What about the relative viability (NCI-H2405; first compound 0.4 µM) of the same compound?
**A.** 0.579

**Q.** And the relative viability (NCI-H2405; first compound 1.265 µM)?
**A.** 0.535

**Q.** And the relative viability (ChaGo-K-1; first compound 0.04 µM)?
**A.** 0.712

**Q.** What about the relative viability (ChaGo-K-1; first compound 0.1265 µM) of the same compound?
**A.** 0.651

**Q.** And the relative viability (ChaGo-K-1; first compound 0.4 µM)?
**A.** 0.56

**Q.** And the relative viability (ChaGo-K-1; first compound 1.265 µM)?
**A.** 0.536

**Q.** What about the relative viability (201T; first compound 0.04 µM) of the same compound?
**A.** 1.08

**Q.** What about the relative viability (201T; first compound 0.1265 µM) of the same compound?
**A.** 1.04

**Q.** What about the relative viability (201T; first compound 0.4 µM) of the same compound?
**A.** 1.07

**Q.** What about the relative viability (201T; first compound 1.265 µM) of the same compound?
**A.** 0.987

**Q.** What about the relative viability (NCI-H322M; first compound 0.04 µM) of the same compound?
**A.** 0.901

**Q.** What about the relative viability (NCI-H322M; first compound 0.1265 µM) of the same compound?
**A.** 0.934

**Q.** And the relative viability (NCI-H322M; first compound 0.4 µM)?
**A.** 0.846

**Q.** What about the relative viability (NCI-H322M; first compound 1.265 µM) of the same compound?
**A.** 0.664

**Q.** What about the relative viability (NCI-H647; first compound 0.04 µM) of the same compound?
**A.** 0.148

**Q.** And the relative viability (NCI-H647; first compound 0.1265 µM)?
**A.** 0.152

**Q.** What about the relative viability (NCI-H647; first compound 0.4 µM) of the same compound?
**A.** 0.18

**Q.** What about the relative viability (NCI-H647; first compound 1.265 µM) of the same compound?
**A.** 0.16

**Q.** And the relative viability (NCI-H2087; first compound 0.04 µM)?
**A.** 0.182

**Q.** And the relative viability (NCI-H2087; first compound 0.1265 µM)?
**A.** 0.192

**Q.** What about the relative viability (NCI-H2087; first compound 0.4 µM) of the same compound?
**A.** 0.221

**Q.** What about the relative viability (NCI-H2087; first compound 1.265 µM) of the same compound?
**A.** 0.164

**Q.** What about the relative viability (NCI-H1915; first compound 0.04 µM) of the same compound?
**A.** 0.784

**Q.** What about the relative viability (NCI-H1915; first compound 0.1265 µM) of the same compound?
**A.** 0.714

**Q.** What about the relative viability (NCI-H1915; first compound 0.4 µM) of the same compound?
**A.** 0.643

**Q.** And the relative viability (NCI-H1915; first compound 1.265 µM)?
**A.** 0.506

**Q.** And the relative viability (LC-2-ad; first compound 0.04 µM)?
**A.** 0.874

**Q.** And the relative viability (LC-2-ad; first compound 0.1265 µM)?
**A.** 1.08

**Q.** What about the relative viability (LC-2-ad; first compound 0.4 µM) of the same compound?
**A.** 0.822

**Q.** And the relative viability (LC-2-ad; first compound 1.265 µM)?
**A.** 0.566

**Q.** What about the relative viability (EPLC-272H; first compound 0.04 µM) of the same compound?
**A.** 0.628

**Q.** And the relative viability (EPLC-272H; first compound 0.1265 µM)?
**A.** 0.367

**Q.** What about the relative viability (EPLC-272H; first compound 0.4 µM) of the same compound?
**A.** 0.21

**Q.** And the relative viability (EPLC-272H; first compound 1.265 µM)?
**A.** 0.0951
